# Source: publication PMC8500670, “A selective WDR5 degrader inhibits acute myeloid leukemia in patient-derived mouse models” (Science translational medicine, 2021)
# Columns and labels:
# Assay in all cases: biochemical
# Design in all cases: kinase selectivity panel, activity as per cent of control, single concentration in duplicate
# Details in all cases: read-out: % of control remaining
# Abl(h) = target: T1, Abl(h) (Homo sapiens, UniProt P00519)
# T1 construct: gene ABL1
# Experimental: (§1) We next assessed selectivity of MS67 against 22 protein methyltransferases (table S2) and a broad panel of common drug targets including 45 kinases (table S3) and 44 G protein–coupled receptors (GPCR), ion channels, and transporters (table S4). […] We subsequently determined that MS67 had moderate binding affinity (Ki = 1.0 ± 0.8 μM) to Sigma 2 receptor (fig. S10).
# cSRC(h) = target: T2, cSRC(h) (Homo sapiens, UniProt P12931)
# T2 construct: gene SRC
# Experimental: as §1
# SAPK2a(h) = target: T3, SAPK2a(h) (Homo sapiens, UniProt Q16539)
# T3 construct: gene MAPK14
# T3 sequence (Q16539 whole entry): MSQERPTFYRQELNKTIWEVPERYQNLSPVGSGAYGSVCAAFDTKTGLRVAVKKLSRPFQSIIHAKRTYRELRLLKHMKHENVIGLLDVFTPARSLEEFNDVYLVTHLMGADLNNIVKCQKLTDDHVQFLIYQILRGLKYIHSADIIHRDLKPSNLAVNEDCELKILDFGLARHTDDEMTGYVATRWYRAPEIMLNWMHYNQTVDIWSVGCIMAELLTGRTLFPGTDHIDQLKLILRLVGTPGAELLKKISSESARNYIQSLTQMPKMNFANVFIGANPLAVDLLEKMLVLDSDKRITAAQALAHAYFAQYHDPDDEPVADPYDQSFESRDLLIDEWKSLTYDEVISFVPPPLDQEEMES
# Experimental: as §1
# NEK2(h) = NEK2(h) (Homo sapiens, UniProt P51955)
# NEK2(h), sequence (P51955 whole entry): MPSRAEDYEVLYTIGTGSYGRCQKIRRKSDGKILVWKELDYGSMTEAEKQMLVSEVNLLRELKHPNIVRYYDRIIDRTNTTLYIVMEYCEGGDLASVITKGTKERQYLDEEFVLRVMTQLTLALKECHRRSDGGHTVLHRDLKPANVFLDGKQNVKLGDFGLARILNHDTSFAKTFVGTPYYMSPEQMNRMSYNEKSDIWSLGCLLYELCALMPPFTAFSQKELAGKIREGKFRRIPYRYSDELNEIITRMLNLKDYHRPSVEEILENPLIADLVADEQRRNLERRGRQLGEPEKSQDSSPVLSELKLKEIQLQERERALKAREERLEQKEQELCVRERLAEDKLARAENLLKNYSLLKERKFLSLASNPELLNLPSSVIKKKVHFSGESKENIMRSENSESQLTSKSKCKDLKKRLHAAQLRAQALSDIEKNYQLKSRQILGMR
# Experimental: as §1
# EphB4(h) = EphB4(h) (Homo sapiens, UniProt P54760)
# Experimental: as §1
# SIK(h) = target: T4, SIK(h) (Homo sapiens, UniProt P57059)
# T4 construct: gene SIK1
# Experimental: as §1
# PAK4(h) = PAK4(h) (Homo sapiens, UniProt O96013)
# Experimental: as §1
# IRAK4(h) = IRAK4(h) (Homo sapiens, UniProt Q9NWZ3)
# Experimental: as §1
# MAP4K4(h) = MAP4K4(h) (Homo sapiens, UniProt O95819)
# MAP4K4(h), sequence (O95819 whole entry): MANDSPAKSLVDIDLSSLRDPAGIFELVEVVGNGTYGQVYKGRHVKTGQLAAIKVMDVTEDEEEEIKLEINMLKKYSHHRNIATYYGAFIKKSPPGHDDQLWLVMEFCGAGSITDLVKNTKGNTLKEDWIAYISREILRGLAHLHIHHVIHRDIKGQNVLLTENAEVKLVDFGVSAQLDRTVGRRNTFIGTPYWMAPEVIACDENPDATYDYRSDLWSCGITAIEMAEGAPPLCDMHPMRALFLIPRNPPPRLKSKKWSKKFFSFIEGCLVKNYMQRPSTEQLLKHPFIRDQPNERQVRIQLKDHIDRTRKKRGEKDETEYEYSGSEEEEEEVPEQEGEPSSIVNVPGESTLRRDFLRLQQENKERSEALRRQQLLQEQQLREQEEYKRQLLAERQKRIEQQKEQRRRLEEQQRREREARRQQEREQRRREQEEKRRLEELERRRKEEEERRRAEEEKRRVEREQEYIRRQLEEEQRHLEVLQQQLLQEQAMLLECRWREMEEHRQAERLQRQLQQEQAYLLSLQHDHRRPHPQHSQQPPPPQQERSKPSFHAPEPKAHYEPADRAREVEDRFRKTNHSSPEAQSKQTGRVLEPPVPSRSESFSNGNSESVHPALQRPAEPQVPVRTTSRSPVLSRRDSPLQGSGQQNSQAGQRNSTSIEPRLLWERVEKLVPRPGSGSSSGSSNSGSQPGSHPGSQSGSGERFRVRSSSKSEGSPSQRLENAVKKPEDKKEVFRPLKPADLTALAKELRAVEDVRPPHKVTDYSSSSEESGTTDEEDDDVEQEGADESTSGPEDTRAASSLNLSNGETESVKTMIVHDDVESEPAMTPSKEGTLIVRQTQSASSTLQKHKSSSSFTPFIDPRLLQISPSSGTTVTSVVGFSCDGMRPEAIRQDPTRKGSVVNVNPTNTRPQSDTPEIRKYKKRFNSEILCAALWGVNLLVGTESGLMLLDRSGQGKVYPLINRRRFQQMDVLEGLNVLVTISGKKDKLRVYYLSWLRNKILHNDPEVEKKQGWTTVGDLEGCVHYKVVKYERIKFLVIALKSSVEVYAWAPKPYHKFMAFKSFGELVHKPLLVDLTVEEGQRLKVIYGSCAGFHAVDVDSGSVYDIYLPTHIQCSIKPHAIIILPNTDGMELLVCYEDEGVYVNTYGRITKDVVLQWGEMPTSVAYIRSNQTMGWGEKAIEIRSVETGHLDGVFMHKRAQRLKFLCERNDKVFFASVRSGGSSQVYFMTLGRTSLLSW
# Experimental: as §1
# ROCK-I(h) = target: T5, ROCK-I(h) (Homo sapiens, UniProt Q13464)
# T5 construct: gene ROCK1
# Experimental: as §1
# MARK1(h) = MARK1(h) (Homo sapiens, UniProt Q9P0L2)
# Experimental: as §1
# Plk1(h) = Plk1(h) (Homo sapiens, UniProt P53350)
# Experimental: as §1
# c-RAF(h) = target: T6, c-RAF(h) (Homo sapiens, UniProt P04049)
# T6 construct: gene RAF1
# T6 sequence (P04049 whole entry): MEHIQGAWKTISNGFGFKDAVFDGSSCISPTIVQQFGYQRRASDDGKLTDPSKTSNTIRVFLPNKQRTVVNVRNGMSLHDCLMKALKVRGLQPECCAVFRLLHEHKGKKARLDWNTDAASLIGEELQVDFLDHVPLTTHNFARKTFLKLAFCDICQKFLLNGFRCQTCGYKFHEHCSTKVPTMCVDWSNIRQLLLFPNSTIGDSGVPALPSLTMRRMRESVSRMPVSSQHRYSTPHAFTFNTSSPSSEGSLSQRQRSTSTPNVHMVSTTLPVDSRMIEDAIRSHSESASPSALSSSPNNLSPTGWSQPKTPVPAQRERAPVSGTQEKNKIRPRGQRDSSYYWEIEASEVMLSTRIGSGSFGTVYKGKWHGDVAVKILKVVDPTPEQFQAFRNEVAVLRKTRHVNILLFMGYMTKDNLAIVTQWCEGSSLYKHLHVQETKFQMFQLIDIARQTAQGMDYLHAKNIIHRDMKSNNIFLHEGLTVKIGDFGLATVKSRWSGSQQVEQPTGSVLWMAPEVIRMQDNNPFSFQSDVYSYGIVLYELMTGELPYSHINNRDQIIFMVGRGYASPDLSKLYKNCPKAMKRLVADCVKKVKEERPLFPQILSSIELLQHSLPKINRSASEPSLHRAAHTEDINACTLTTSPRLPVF
# Experimental: as §1
# CHK1(h) = target: T7, CHK1(h) (Homo sapiens, UniProt O14757)
# T7 construct: gene CHEK1
# T7 sequence (O14757 whole entry): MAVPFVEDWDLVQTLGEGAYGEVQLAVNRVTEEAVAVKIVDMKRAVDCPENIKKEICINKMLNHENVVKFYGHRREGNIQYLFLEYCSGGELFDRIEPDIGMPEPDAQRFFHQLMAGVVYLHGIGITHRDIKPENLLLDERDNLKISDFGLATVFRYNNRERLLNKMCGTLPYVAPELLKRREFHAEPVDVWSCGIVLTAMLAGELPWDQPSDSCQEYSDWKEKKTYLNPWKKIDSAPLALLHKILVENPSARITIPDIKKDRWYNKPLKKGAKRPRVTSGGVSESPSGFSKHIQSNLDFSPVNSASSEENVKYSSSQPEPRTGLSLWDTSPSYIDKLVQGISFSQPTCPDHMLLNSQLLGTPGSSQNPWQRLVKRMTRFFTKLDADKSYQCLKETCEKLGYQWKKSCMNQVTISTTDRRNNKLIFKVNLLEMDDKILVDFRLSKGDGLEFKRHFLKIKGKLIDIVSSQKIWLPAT
# Experimental: as §1
# CDK2/cyclinA(h) = CDK2/cyclinA(h) (Homo sapiens, UniProt P24941)
# Experimental: as §1
# CaMKIIα(h) = target: T8, CaMKIIα(h) (Homo sapiens, UniProt Q9UQM7)
# T8 construct: gene CAMK2A
# Experimental: as §1
# TrkA(h) = target: T9, TrkA(h) (Homo sapiens, UniProt P04629)
# T9 construct: gene NTRK1
# Experimental: as §1
# PDK1(h) = target: T10, PDK1(h) (Homo sapiens, UniProt O15530)
# T10 construct: gene PDPK1
# Experimental: as §1
# FGFR1(h) = FGFR1(h) (Homo sapiens, UniProt P11362)
# Experimental: as §1
# PKCβII(h) = target: T11, PKCβII(h) (Homo sapiens, UniProt P05771)
# T11 construct: gene PRKCB; isoform betaII
# Experimental: as §1
# PKBα(h) = target: T12, PKBα(h) (Homo sapiens, UniProt P31749)
# T12 construct: gene AKT1
# Experimental: as §1
# TAO2(h) = target: T13, TAO2(h) (Homo sapiens, UniProt Q9UL54)
# T13 construct: gene TAOK2
# Experimental: as §1
# Mnk2(h) = target: T14, Mnk2(h) (Homo sapiens, UniProt Q9HBH9)
# T14 construct: gene MKNK2
# T14 sequence (Q9HBH9 whole entry): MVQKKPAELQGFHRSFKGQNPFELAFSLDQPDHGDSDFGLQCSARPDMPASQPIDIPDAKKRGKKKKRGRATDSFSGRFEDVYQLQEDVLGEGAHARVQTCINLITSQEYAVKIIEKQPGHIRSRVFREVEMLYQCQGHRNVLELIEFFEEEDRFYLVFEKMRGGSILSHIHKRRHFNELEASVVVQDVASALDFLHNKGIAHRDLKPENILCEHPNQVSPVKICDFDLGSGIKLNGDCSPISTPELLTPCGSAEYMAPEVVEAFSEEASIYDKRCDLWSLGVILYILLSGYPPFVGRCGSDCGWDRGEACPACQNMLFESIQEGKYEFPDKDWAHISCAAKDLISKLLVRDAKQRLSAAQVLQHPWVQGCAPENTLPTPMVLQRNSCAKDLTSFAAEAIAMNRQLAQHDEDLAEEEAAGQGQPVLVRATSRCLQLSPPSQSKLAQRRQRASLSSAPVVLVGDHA
# Experimental: as §1
# KDR(h) = KDR(h) (Homo sapiens, UniProt P35968)
# Experimental: as §1
# CDK1/cyclinB(h) = CDK1/cyclinB(h) (Homo sapiens, UniProt P06493)
# Experimental: as §1
# EGFR(h) = EGFR(h) (Homo sapiens, UniProt P00533)
# Experimental: as §1
# T1 sequence (P00519 whole entry): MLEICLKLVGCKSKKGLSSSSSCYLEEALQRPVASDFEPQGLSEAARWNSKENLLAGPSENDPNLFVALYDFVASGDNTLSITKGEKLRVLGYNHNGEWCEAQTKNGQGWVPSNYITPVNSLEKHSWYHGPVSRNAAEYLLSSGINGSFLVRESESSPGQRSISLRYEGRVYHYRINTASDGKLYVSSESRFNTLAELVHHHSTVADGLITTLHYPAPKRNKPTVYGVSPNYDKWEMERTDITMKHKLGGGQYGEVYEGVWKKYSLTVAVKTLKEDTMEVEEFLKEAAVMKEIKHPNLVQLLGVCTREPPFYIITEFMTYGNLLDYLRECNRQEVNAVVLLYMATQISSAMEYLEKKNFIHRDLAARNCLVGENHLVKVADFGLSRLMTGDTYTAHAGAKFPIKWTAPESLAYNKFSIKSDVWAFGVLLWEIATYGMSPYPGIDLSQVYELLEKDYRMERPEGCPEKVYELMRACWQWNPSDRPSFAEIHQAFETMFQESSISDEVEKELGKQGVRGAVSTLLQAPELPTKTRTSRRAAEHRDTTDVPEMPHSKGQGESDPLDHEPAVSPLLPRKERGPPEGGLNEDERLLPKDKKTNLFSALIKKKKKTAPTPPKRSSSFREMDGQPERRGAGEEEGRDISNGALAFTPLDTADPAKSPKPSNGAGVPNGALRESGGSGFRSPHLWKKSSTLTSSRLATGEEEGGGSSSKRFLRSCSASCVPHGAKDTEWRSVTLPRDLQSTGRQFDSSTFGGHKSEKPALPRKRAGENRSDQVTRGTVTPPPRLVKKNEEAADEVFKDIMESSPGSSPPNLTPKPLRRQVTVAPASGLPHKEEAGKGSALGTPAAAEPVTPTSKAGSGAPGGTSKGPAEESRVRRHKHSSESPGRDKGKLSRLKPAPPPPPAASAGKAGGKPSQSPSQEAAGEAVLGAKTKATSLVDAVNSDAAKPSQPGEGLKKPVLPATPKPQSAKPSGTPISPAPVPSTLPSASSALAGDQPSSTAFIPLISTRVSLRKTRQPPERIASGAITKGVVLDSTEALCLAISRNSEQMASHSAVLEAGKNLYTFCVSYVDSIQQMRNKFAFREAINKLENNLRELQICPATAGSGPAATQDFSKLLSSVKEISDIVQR
smiles,measurement,setting,value
Cc1ncsc1-c1ccc([C@H](C)NC(=O)[C@@H]2C[C@@H](O)CN2C(=O)[C@@H](NC(=O)CNC(=O)c2ccc(F)c(-c3ccc(N4C[C@@H](C)N(C)[C@@H](C)C4)c(NC(=O)c4c[nH]c(=O)cc4C(F)(F)F)c3)c2)C(C)(C)C)cc1 [MS67],remaining activity at 1 µM,Abl(h),99%
same,remaining activity at 1 µM,cSRC(h),96%
same,remaining activity at 1 µM,SAPK2a(h),99%
same,remaining activity at 1 µM,NEK2(h),111%
same,remaining activity at 1 µM,EphB4(h),150%
same,remaining activity at 1 µM,SIK(h),84%
same,remaining activity at 1 µM,PAK4(h),95%
same,remaining activity at 1 µM,IRAK4(h),109%
same,remaining activity at 1 µM,MAP4K4(h),100%
same,remaining activity at 1 µM,ROCK-I(h),109%
same,remaining activity at 1 µM,MARK1(h),100%
same,remaining activity at 1 µM,Plk1(h),87%
same,remaining activity at 1 µM,c-RAF(h),87%
same,remaining activity at 1 µM,CHK1(h),78%
same,remaining activity at 1 µM,CDK2/cyclinA(h),91%
same,remaining activity at 1 µM,CaMKIIα(h),92%
same,remaining activity at 1 µM,TrkA(h),94%
same,remaining activity at 1 µM,PDK1(h),110%
same,remaining activity at 1 µM,FGFR1(h),105%
same,remaining activity at 1 µM,PKCβII(h),112%
same,remaining activity at 1 µM,PKBα(h),93%
same,remaining activity at 1 µM,TAO2(h),95%
same,remaining activity at 1 µM,Mnk2(h),125%
same,remaining activity at 1 µM,KDR(h),110%
same,remaining activity at 1 µM,CDK1/cyclinB(h),94%
same,remaining activity at 1 µM,EGFR(h),101%
